Measurements reported in patent US20260274833A1 (NiKang Therapeutics, Inc., priority 2022, published 2026).

What follows are molecules tested against T1, CDK2 (Homo sapiens, UniProt P24941) (assay: Phospho-RB measurement in OVCAR3 cells (HTRF phospho-RB cellular kit)). Conditions: inhibition of RB phosphorylation at S807/811 (HTRF), 24 h compound treatment.
T1 construct: endogenous in cells; host or cells: OVCAR3 cells
Format: cell-based
Outline: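 IC50 came from a four-parameter logistic fit of the DMSO-normalized TR-FRET ratio (665/620 nm). That ratio reflects RB phosphorylation at S807/811, read with an HTRF antibody pair 4 h after adding lysate at room temperature.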

IC50 [µM]	SMILES
> 10	CC(=O)N1CCN(S(=O)(=O)Nc2cccc(-c3nc(C(C)(C)C)sc3-c3ccnc(NC4CCN(S(C)(=O)=O)CC4)n3)c2F)CC1 [Example 88, 4-acetyl-N-(3-(2-(tert-butyl)-5-(2-((1-(methylsulfonyl)piperidin-4-yl)amino)-pyrimidin-4-yl)thiazol-4-yl)-2-fluoro-phenyl)-piperazine-1-sulfonamide]
> 10	CC(C)(C)c1nc(-c2cccc(NS(=O)(=O)N3CCn4cnnc4C3)c2F)c(-c2ccnc(NC3CCN(S(C)(=O)=O)CC3)n2)s1 [Example 90, N-(3-(2-(tert-butyl)-5-(2-((1-(methylsulfonyl)-piperidin-4-yl)amino)-pyrimidin-4-yl)thiazol-4-yl)~2~fluoro-phenyl)-5,6-dihydro-[1,2,4] triazolo-[4,3-a]pyrazine-7(8H)-sulfonamide]

Same assay, conditions: inhibition of RB phosphorylation at S807/811 (HTRF, TR-FRET ratio 665/620), 24 h compound treatment, 0.3 to 10,000 nM

IC50 [µM]	SMILES
0.094	CC(C)(C)c1nc(-c2cccc(NS(=O)(=O)N3Cc4ccc(F)cc4C3)c2F)c(-c2ccnc(NC3CCN(S(C)(=O)=O)CC3)n2)s1 [Example 70, N-(3-(2-(tert-butyl)-5-(2-((1-(methylsulfonyl)-piperidin-4-yl)amino)-pyrimidin-4-yl)thiazol-4-yl)-2-fluoro-phenyl)-5-fluoroisoindoline-2-sulfonamide]
0.076	CC(C)(C)c1nc(-c2cccc(NS(=O)(=O)N3Cc4cccc(F)c4C3)c2F)c(-c2ccnc(NC3CCN(S(C)(=O)=O)CC3)n2)s1 [Example 71, N-(3-(2-(tert-butyl)-5-(2-((1-(methylsulfonyl)-piperidin-4-yl)amino)-pyrimidin-4-yl)thiazol-4-yl)-2-fluoro-phenyl)-4-fluoroisoindoline-2-sulfonamide]
0.185	COc1ccc2c(c1)CN(S(=O)(=O)Nc1cccc(-c3nc(C(C)(C)C)sc3-c3ccnc(NC4CCN(S(C)(=O)=O)CC4)n3)c1F)C2 [Example 72, N-(3-(2-(tert-butyl)-5-(2-((1-(methylsulfonyl)-piperidin-4-yl)amino)-pyrimidin-4-yl)thiazol-4-yl)-2-fluoro-phenyl)-5-methoxyisoindoline-2-sulfonamide]
0.058	CC(C)(C)c1nc(-c2cccc(NS(=O)(=O)N3CCc4ccccc43)c2F)c(-c2ccnc(NC3CCN(S(C)(=O)=O)CC3)n2)s1 [Example 73, N-(3-(2-(tert-butyl)-5-(2-((1-(methylsulfonyl)-piperidin-4-yl)amino)-pyrimidin-4-yl)thiazol-4-yl)-2-fluoro-phenyl)indoline-1-sulfonamide]
0.18	CC(C)(C)c1nc(-c2cccc(NS(=O)(=O)N3CCc4ccccc4C3)c2F)c(-c2ccnc(NC3CCN(S(C)(=O)=O)CC3)n2)s1 [Example 74, N-(3-(2-(tert-butyl)-5-(2-((1-(methylsulfonyl)-piperidin-4-yl)amino)-pyrimidin-4-yl)thiazol-4-yl)-2-fluoro-phenyl)-3,4-dihydro-isoquinoline-2(1H)-sulfonamide]
0.065	CNS(=O)(=O)N1CCC(Nc2nccc(-c3sc(C(C)(C)C)nc3-c3cccc(NS(=O)(=O)N4Cc5ccccc5C4)c3F)n2)CC1 [Example 75, N-(3-(2-(tert-butyl)-5-(2-((1-(N-methylsulfamoyl)piperidin-4-yl)amino)-pyrimidin-4-yl)thiazol-4-yl)-2-fluoro-phenyl)-isoindoline-2-sulfonamide]
0.065	CC(C)(C)c1nc(-c2cccc(NS(=O)(=O)N3Cc4ccccc4C3)c2F)c(-c2ccnc(NC3CCN(S(N)(=O)=O)CC3)n2)s1 [Example 76, N-(3-(2-(tert-butyl)-5-(2-((1-sulfamoyl-piperidin-4-yl)amino)pyrimidin-4-yl)thiazol-4-yl)-2-fluorophenyl)-isoindoline-2-sulfonamide]
0.367	CC(C)(C)c1nc(-c2cccc(NS(=O)(=O)N3Cc4cc(F)c(F)cc4C3)c2F)c(-c2ccnc(NC3CCN(S(C)(=O)=O)CC3)n2)s1 [Example 77]
0.0656	COc1cccc2c1CN(S(=O)(=O)Nc1cccc(-c3nc(C(C)(C)C)sc3-c3ccnc(NC4CCN(S(C)(=O)=O)CC4)n3)c1F)C2 [Example 78, N-(3-(2-(tert-butyl)-5-(2-((1-(methylsulfonyl)-piperidin-4-yl)amino)-pyrimidin-4-yl)thiazol-4-yl)-2-fluoro-phenyl)-4-methoxyisoindoline-2-sulfonamide]
0.22	CC(C)(C)c1nc(-c2cccc(NS(=O)(=O)N3Cc4ccccc4C3)c2F)c(-c2ccnc(Nc3ccc(N4CCNCC4)cc3)n2)s1 [Example 79, N-(3-(2-(tert-butyl)-5-(2-((4-(piperazin-1-yl)-phenyl)amino)pyrimidin-4-yl)thiazol-4-yl)-2-fluorophenyl)-isoindoline-2-sulfonamide]
0.172	CC(C)(C)c1nc(-c2cccc(NS(=O)(=O)N3CCCc4ccccc4C3)c2F)c(-c2ccnc(NC3CCN(S(C)(=O)=O)CC3)n2)s1 [Example 80, N-(3-(2-(tert-butyl)-5-(2-((1-(methylsulfonyl)-piperidin-4-yl)amino)-pyrimidin-4-yl)thiazol-4-yl)-2-fluorophenyl)-1,3,4,5-tetrahydro-2H-benzo[c]azepine-2-sulfonamide]
3.73	CC(C)(C)c1nc(-c2cccc(NS(=O)(=O)N3CCc4ccccc4CC3)c2F)c(-c2ccnc(NC3CCN(S(C)(=O)=O)CC3)n2)s1 [Example 81, N-(3-(2-(tert-butyl)-5-(2-((1-(methylsulfonyl)-piperidin-4-yl)amino)-pyrimidin-4-yl)thiazol-4-yl)-2-fluoro-phenyl)-1,2,4,5-tetrahydro-3H-benzo[d]azepine-3-sulfonamide]
0.85	CC(C)(C)c1nc(-c2cccc(NS(=O)(=O)N3CCCCc4ccccc43)c2F)c(-c2ccnc(NC3CCN(S(C)(=O)=O)CC3)n2)s1 [Example 82, N-(3-(2-(tert-butyl)-5-(2-((1-(methylsulfonyl)piperidin-4-yl)amino)-pyrimidin-4-yl)thiazol-4-yl)-2-fluorophenyl)-2,3,4,5-tetrahydro-1H-benzo[b]azepine-1-sulfonamide]
1.47	CC(C)(C)c1nc(-c2cccc(NS(=O)(=O)N3CCn4cncc4C3)c2F)c(-c2ccnc(NC3CCN(S(C)(=O)=O)CC3)n2)s1 [Example 83, N-(3-(2-(tert-butyl)-5-(2-((1-(methylsulfonyl)-piperidin-4-yl)amino)-pyrimidin-4-yl)thiazol-4-yl)-2-fluoro-phenyl)-5,6-dihydroimidazo [1,5-a]-pyrazine-7 (8H)-sulfonamide]
1.92	CC(C)(C)c1nc(-c2cccc(NS(=O)(=O)N3CCn4ccnc4C3)c2F)c(-c2ccnc(NC3CCN(S(C)(=O)=O)CC3)n2)s1 [Example 84, N-(3-(2-(tert-butyl)-5-(2-((1-(methylsulfonyl)-piperidin-4-yl)amino)-pyrimidin-4-yl)thiazol-4-yl)-2-fluoro-phenyl)-5,6-dihydroimidazo [1,2-a]-pyrazine-7(8H)-sulfonamide]
0.394	Cn1ncc2c1CN(S(=O)(=O)Nc1cccc(-c3nc(C(C)(C)C)sc3-c3ccnc(NC4CCN(S(C)(=O)=O)CC4)n3)c1F)C2 [Example 85, N-(3-(2-(tert-butyl)-5-(2-((1-(methylsulfonyl)-piperidin-4-yl)amino)-pyrimidin-4-yl)thiazol-4-yl)-2-fluoro-phenyl)-1-methyl-4,6-dihydro-pyrrolo[3,4-c]pyrazole-5(1H)-sulfonamide]
0.484	Cn1cc2c(n1)CN(S(=O)(=O)Nc1cccc(-c3nc(C(C)(C)C)sc3-c3ccnc(NC4CCN(S(C)(=O)=O)CC4)n3)c1F)C2 [Example 86, N-(3-(2-(tert-butyl)-5-(2-((1-(methylsulfonyl)-piperidin-4-yl)amino)-pyrimidin-4-yl)thiazol-4-yl)-2-fluoro-phenyl)-2-methyl-2,6-dihydro-pyrrolo[3,4-c]pyrazole-5(4H)-sulfonamide]
0.325	COc1cc2c(cc1OC)CN(S(=O)(=O)Nc1cccc(-c3nc(C(C)(C)C)sc3-c3ccnc(NC4CCN(S(C)(=O)=O)CC4)n3)c1F)C2 [Example 87, N-(3-(2-(tert-butyl)-5-(2-((1-(methylsulfonyl)-piperidin-4-yl)amino)-pyrimidin-4-yl)thiazol-4-yl)-2-fluorophenyl)-5,6-dimethoxy-isoindoline-2-sulfonamide]
4.81	CN1CCN(S(=O)(=O)Nc2cccc(-c3nc(C(C)(C)C)sc3-c3ccnc(NC4CCN(S(C)(=O)=O)CC4)n3)c2F)CC1=O [Example 89, N-(3-(2-(tert-butyl)-5-(2-((1-(methylsulfonyl)-piperidin-4-yl)amino)-pyrimidin-4-yl)thiazol-4-yl)-2-fluoro-phenyl)-4-methyl-3-oxopiperazine-1-sulfonamide]
0.117	CC(C)(C)c1nc(-c2cccc(NS(=O)(=O)N3CCOc4ccccc4C3)c2F)c(-c2ccnc(NC3CCN(S(C)(=O)=O)CC3)n2)s1 [Example 91, N-(3-(2-(tert-butyl)-5-(2-((1-(methylsulfonyl)-piperidin-4-yl)amino)-pyrimidin-4-yl)thiazol-4-yl)-2-fluorophenyl)-2,3-dihydrobenzo [f][1,4]-oxazepine-4 (5H)-sulfonamide]
0.305	CC(C)(C)c1nc(-c2cccc(NS(=O)(=O)N3CCc4cc(C#N)ccc43)c2F)c(-c2ccnc(NC3CCN(S(C)(=O)=O)CC3)n2)s1 [Example 92, N-(3-(2-(tert-butyl)-5-(2-((1-(methylsulfonyl)piperidin-4-yl)amino)-pyrimidin-4-yl)thiazol-4-yl)-2-fluorophenyl)-5-cyanoindoline-1-sulfonamide]
3.03	CC(C)(C)c1nc(-c2cccc(NS(=O)(=O)N3CCN(S(C)(=O)=O)CC3)c2F)c(-c2ccnc(NC3CCN(S(C)(=O)=O)CC3)n2)s1 [Example 93, N-(3-(2-(tert-butyl)-5-(2-((1-(methylsulfonyl)piperidin-4-yl)amino)-pyrimidin-4-yl)thiazol-4-yl)-2-fluorophenyl)-4-(methylsulfonyl)-piperazine-1-sulfonamide]
